A short description of this data set: Solubility description. As to conditions: for solubility in water: water (and aqueous solutions). In kind it is physicochemical.

For `C[C@]12CC[C@@H]3c4ccc(O)cc4CC[C@H]3[C@@H]1[C@@H](O)[C@@H](O)C2O` (stereo in doubt) [Estetrol monohydrate, estra-1,3,5 (10)-triene-3,15α, 16α, 17α-tetrol monohydrate], the solubility in water result is listed as “poorly soluble”. For the same compound, under “acetone”, the solubility in acetone result was “sparingly soluble”. The solubility in acetonitrile entry (acetonitrile) is recorded as “slightly soluble”. For the setting “ethanol”, the solubility in ethanol entry was “soluble”. The “solubility in ethyl acetate” value (ethyl acetate) is “slightly soluble”. The solubility in methanol result (methanol) was “soluble”.
Turning to `C[C@]12CCC(=O)C=C1[C@@H]1C[C@@H]1[C@H]1[C@@H]3[C@@H]4C[C@@H]4[C@@]4(CCC(=O)O4)[C@@]3(C)CC[C@@H]12` [Drospirenone, reference compound], the solubility in water entry is “slight solubility”.

The values are drawn from patent US20250152604A1, “CONTRACEPTIVE METHODS WITH SCHEDULED BLEEDING EFFECTS” (ESTETRA SRL, priority 2022, published 2025).
